Assay results from patent US8129371B2, “Thienopyrimidine and pyrazolopyrimidine compounds and their use as mTOR kinase and PI3 kinase inhibitors” (Wyeth LLC, priority 2007, dated 2012).

Assays:
Human mTOR (FLAG-TOR) = biological target: T1, Human mTOR (FLAG-TOR) (Homo sapiens, UniProt P42345); test: Human mTOR kinase assay with purified enzyme, DELFIA format; assay type: biochemical
T1 construct: FLAG
Outline: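 DELFIA readout: Eu-anti-P(T389)-S6K antibody (40 ng/mL, 1 h) on captured His6-S6K from the stopped reaction. Kinase step used purified FLAG-tagged human mTOR with test compound in HEPES (pH 7.4)/MnCl2/DTT buffer, 2 h at room temperature (linear 1–6 h), terminated by EDTA/EGTA.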

breast line MDA468 = test: In vitro cell culture growth assay (MTS), MDA468; assay type: cell-based; details: Homo sapiens, 72 h, MDA468 cells, three days after drug treatment
Outline: (§1)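 Viable cell density is assessed three days after inhibitor addition via MTS conversion, normalised to vehicle-treated cells.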

PI3K [1] = biological target: T2, PI3K (Homo sapiens, UniProt P48736); test: Fluorescence polarization assay for PI3K; assay type: biochemical; details: PI3 Kinase γ; read-out: PI3 Kinase γ IC50
T2 construct: PI3 Kinase γ IC50; other: PI3 Kinase γ; other: PI3 Kinase γ isoform, fluorescence polarization
Outline: (§2)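 Fluorescence-polarization competition readout: after 30–60 min of PIP2/ATP turnover in 1% DMSO, a stop mix with GST-GRP (70 nM) and red probe (10 nM) was added.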

PI3K [2] = biological target: T3, PI3K (Homo sapiens, UniProt P42336); test: Fluorescence polarization assay for PI3K; assay type: biochemical; details: PI3 Kinase α; read-out: PI3 Kinase α IC50
T3 construct: PI3 Kinase α IC50; other: PI3 Kinase α; other: PI3 Kinase α isoform, fluorescence polarization
Outline: as §2

prostate line LNCap = test: In vitro cell culture growth assay (MTS), LNCap; assay type: cell-based; details: Homo sapiens, LNCaP, 72 h, LNCap cells, three days after drug treatment
Outline: as §1

T2 sequence (P48736 whole entry, canonical isoform): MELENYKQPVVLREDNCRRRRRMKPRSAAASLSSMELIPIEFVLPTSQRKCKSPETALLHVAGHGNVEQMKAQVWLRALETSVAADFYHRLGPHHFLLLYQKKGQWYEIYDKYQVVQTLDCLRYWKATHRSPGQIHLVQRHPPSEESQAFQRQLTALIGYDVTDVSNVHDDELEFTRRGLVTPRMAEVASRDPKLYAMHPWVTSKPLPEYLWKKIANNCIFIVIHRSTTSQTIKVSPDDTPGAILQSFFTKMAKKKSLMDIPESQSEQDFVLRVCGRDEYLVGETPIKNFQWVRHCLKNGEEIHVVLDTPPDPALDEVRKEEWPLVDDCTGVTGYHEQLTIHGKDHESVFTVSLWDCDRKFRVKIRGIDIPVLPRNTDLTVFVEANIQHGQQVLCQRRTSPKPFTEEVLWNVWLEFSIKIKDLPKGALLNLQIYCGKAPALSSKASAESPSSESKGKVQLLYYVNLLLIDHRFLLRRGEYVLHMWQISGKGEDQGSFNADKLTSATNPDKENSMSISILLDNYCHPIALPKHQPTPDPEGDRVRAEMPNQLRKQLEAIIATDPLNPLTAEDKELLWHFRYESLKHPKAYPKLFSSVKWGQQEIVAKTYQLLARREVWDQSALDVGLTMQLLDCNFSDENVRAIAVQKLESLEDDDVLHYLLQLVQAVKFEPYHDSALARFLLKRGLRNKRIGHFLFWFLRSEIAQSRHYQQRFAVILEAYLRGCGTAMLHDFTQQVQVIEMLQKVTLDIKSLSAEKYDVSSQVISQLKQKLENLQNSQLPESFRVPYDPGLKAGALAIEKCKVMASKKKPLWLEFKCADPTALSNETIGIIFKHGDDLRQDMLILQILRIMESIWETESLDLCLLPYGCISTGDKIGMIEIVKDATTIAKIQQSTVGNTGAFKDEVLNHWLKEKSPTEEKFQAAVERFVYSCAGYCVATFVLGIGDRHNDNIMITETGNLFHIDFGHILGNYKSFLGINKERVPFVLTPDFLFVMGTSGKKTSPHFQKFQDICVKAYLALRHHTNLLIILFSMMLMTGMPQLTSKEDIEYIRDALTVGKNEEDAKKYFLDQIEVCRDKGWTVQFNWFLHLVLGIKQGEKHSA
T3 sequence (P42336 whole entry, canonical isoform): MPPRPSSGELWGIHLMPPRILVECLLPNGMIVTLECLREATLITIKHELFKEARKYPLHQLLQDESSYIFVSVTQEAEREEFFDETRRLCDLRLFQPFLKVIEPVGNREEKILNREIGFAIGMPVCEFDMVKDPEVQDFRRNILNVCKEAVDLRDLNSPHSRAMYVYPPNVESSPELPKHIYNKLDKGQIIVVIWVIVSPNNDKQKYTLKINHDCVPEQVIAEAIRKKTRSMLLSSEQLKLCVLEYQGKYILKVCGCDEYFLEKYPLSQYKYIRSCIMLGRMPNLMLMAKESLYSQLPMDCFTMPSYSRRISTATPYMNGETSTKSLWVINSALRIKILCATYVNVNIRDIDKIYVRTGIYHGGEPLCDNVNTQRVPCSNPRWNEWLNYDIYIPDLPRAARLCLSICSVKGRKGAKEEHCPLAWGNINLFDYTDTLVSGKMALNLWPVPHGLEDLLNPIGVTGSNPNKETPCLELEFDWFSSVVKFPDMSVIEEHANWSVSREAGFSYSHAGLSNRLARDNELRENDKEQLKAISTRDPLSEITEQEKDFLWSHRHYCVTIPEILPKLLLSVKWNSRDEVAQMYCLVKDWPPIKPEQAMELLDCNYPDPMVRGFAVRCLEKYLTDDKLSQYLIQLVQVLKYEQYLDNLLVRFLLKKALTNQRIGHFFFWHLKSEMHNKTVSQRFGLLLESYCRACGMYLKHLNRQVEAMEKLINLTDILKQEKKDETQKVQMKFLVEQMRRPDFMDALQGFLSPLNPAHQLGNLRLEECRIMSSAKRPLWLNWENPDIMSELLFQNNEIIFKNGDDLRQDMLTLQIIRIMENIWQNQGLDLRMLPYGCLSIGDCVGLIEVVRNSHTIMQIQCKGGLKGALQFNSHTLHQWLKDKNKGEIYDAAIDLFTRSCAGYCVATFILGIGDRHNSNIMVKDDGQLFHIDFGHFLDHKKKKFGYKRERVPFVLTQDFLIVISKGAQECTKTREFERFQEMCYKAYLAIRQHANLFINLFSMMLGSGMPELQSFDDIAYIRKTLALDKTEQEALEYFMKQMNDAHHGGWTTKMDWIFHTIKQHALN

SMILES: COC(=O)N1CCC(n2ncc3c(N4CC5CCC(C4)O5)nc(-c4ccc(NC(=O)OCCN5CCOCC5)cc4)nc32)CC1 [Example 117, methyl 4-[6-(4-{[(2-morpholin-4-ylethoxy)carbonyl]amino}phenyl)-4-(8-oxa-3-azabicyclo[3.2.1]oct-3-yl)-1H-pyrazolo[3,4-d]pyrimidin-1-yl]piperidine-1-carboxylate]
- IC50 (Human mTOR (FLAG-TOR)): > 800 nM
- IC50 (breast line MDA468): 22000 nM
- IC50 (PI3K [1]): > 10000 nM
- IC50 (PI3K [2]): > 10000 nM
- IC50 (prostate line LNCap): 4400 nM

SMILES: COC(=O)N1CCC(n2ncc3c(N4CC5CCC(C4)O5)nc(-c4ccc(NC(=O)OCCN5CCN(C)CC5)cc4)nc32)CC1 [Example 118, methyl 4-{6-[4-({[2-(4-methylpiperazin-1-yl)ethoxy]carbonyl}amino)phenyl]-4-(8-oxa-3-azabicyclo[3.2.1]oct-3-yl)-1H-pyrazolo[3,4-d]pyrimidin-1-yl}piperidine-1-carboxylate]
- IC50 (Human mTOR (FLAG-TOR)): > 800 nM
- IC50 (breast line MDA468): 4700 nM
- IC50 (PI3K [1]): > 10000 nM
- IC50 (PI3K [2]): 8040 nM
- IC50 (prostate line LNCap): 2800 nM

SMILES: COC(=O)Nc1ccc(-c2nc(N3CC4CCC(C3)O4)c3cnn(C4CCN(C(=O)OC)CC4)c3n2)cc1 [Example 119, methyl 4-[6-{4-[(methoxycarbonyl)amino]phenyl}-4-(8-oxa-3-azabicyclo[3.2.1]oct-3-yl)-1H-pyrazolo[3,4-d]pyrimidin-1-yl]piperidine-1-carboxylate]
- IC50 (Human mTOR (FLAG-TOR)): 3.6 nM
- IC50 (breast line MDA468): 1200 nM
- IC50 (PI3K [1]): > 10000 nM
- IC50 (PI3K [2]): 4670 nM
- IC50 (prostate line LNCap): 180 nM

SMILES: COC(=O)N1CCC(n2ncc3c(N4CC5CCC(C4)O5)nc(-c4ccc(N)cc4)nc32)CC1 [Example 120, methyl 4-[6-(4-aminophenyl)-4-(8-oxa-3-azabicyclo[3.2.1]oct-3-yl)-1H-pyrazolo[3,4-d]pyrimidin-1-yl]piperidine-1-carboxylate]
- IC50 (Human mTOR (FLAG-TOR)): 69 nM
- IC50 (breast line MDA468): 6900 nM
- IC50 (PI3K [1]): > 10000 nM
- IC50 (PI3K [2]): 7920 nM
- IC50 (prostate line LNCap): 950 nM

SMILES: O=C(Nc1ccc(-c2nc(N3CC4CCC(C3)O4)c3cnn(C4CCC5(CC4)OCCO5)c3n2)cc1)OCCO [Example 121, 2-hydroxyethyl {4-[1-(1,4-dioxaspiro[4.5]dec-8-yl)-4-(8-oxa-3-azabicyclo[3.2.1]oct-3-yl)-1H-pyrazolo[3,4-d]pyrimidin-6-yl]phenyl}carbamate]
- IC50 (Human mTOR (FLAG-TOR)): 0.5 nM
- IC50 (breast line MDA468): 63 nM
- IC50 (PI3K [1]): > 10000 nM
- IC50 (PI3K [2]): 7650 nM
- IC50 (prostate line LNCap): 2 nM

SMILES: O=C(Nc1ccc(-c2nc(N3CC4CCC(C3)O4)c3cnn(C4CCC5(CC4)OCCO5)c3n2)cc1)OCCCO [Example 122, 3-hydroxypropyl {4-[1-(1,4-dioxaspiro[4.5]dec-8-yl)-4-(8-oxa-3-azabicyclo[3.2.1]oct-3-yl)-1H-pyrazolo[3,4-d]pyrimidin-6-yl]phenyl}carbamate]
- IC50 (Human mTOR (FLAG-TOR)): 4 nM
- IC50 (breast line MDA468): 1800 nM
- IC50 (PI3K [1]): > 10000 nM
- IC50 (PI3K [2]): > 10000 nM
- IC50 (prostate line LNCap): 190 nM

SMILES: CCNC(=O)Nc1ccc(-c2nc(N3CC4CCC(C3)O4)c3cnn(C4CCC5(CC4)OCCO5)c3n2)cc1 [Example 123, 1-{4-[1-(1,4-dioxaspiro[4.5]dec-8-yl)-4-(8-oxa-3-azabicyclo[3.2.1]oct-3-yl)-1H-pyrazolo[3,4-d]pyrimidin-6-yl]phenyl}-3-ethylurea]
- IC50 (Human mTOR (FLAG-TOR)): 0.26 nM
- IC50 (breast line MDA468): 9 nM
- IC50 (PI3K [1]): > 10000 nM
- IC50 (PI3K [2]): 4580 nM
- IC50 (prostate line LNCap): 1 nM

SMILES: O=C(NCCF)Nc1ccc(-c2nc(N3CC4CCC(C3)O4)c3cnn(C4CCC5(CC4)OCCO5)c3n2)cc1 [Example 124, 1-{4-[1-(1,4-dioxaspiro[4.5]dec-8-yl)-4-(8-oxa-3-azabicyclo[3.2.1]oct-3-yl)-1H-pyrazolo[3,4-d]pyrimidin-6-yl]phenyl}-3-(2-fluoroethyl)urea]
- IC50 (Human mTOR (FLAG-TOR)): 0.225 nM
- IC50 (breast line MDA468): 20 nM
- IC50 (PI3K [1]): > 10000 nM
- IC50 (PI3K [2]): 5130 nM
- IC50 (prostate line LNCap): 1 nM
